US7232578B2, “Pharmaceutical composition inducing cancer cell differentiation and the use for treatment and prevention of cancer thereof” (Bio Grand Co., Ltd., priority 2005, dated 2007)

Legend:
HL-60 cancer cells = assay: Completeness of retinoic acid-induced differentiation with helper inducers (NBT test); assay type: cell-based; details: 96 hours, FIG. 5
Description: Differentiation helper inducers can not only decrease the effective amount of the differentiation inducer, but also promote the completeness of differentiation. HL-60 cancer cells were subcultured at an initial cell density of 1.5×10^5 cells/ml. The culture flasks were grouped into three sets; each set includes 4-5 flasks. One flask was used as the blank without additives. One set was added 0.025-0.15 μM retinoic acid as the control; the other two sets were added 4 μM of uroerythrin or vitamin B2. NBT test was conducted as described in Example 4 after incubation for 96 hours. The values thus obtained were subtracted with the value obtained by the blank without additives.

HL-60 cells = assay: Differentiation helper inducer activity (reductive index, retinoic acid-induced HL-60 differentiation, NBT+); assay type: cell-based; details: for Concentration to reach 0.5 reductive index: methyltransferase inhibitors as differentiation helper inducers, HL-60, retinoic acid, 96 hours; for Concentration to reach 0.5 reductive index (effective dose of differentiation inducer reduced to 50%): MAT inhibitors as differentiation helper inducers
Description: The differentiation of cancer cells was measured by using leukemic cancer cells HL-60 to quantitate the NBT+ cells. First, HL-60 cells were subcultured at an initial cell density 1.5×10^5 cells/ml, 10 ml/flask. A set of four flasks were used as the control, wherein only retinoic acid was added as differentiation inducer, the amount of which was adjusted to induce NBT+ cells to the range of 15% to 60%. Another flask was used as the blank which was added the solution only. The total amount of methanol in which retinoic acid was dissolved should not exceed 2%, so as not to affect the differentiation of cancer cells. Each of other sets also comprises four flasks, which were added smaller amounts of retinoic acid, and a blank flask with only the solvent. Different amounts of the differentiation helper inducers were added in each set. The cell numbers in every flask were counted after incubation for 96 hours, and NBT was assayed according to the method of Example 4. Generally, the natural differentiation of the HL-60 cells, i.e. without the action of any of the additives, is usually lower than 4%. In the sets containing only differentiation helper inducer, the differentiation of cells is less than 10%. The value of NBT+ in each flask is required to subtract the value of the blank control.
The value of ED50, i.e., the amount of the differentiation inducer required when NBT+ is 50%, can be obtained by plotting the amount against NBT+. The reductive index can be calculated from the ED50 value. Reductive index=ED50 in the presence of differentiation helper inducer/ED50 with cell differentiation inducer only. The lower the reductive index, the higher the activity of the differentiation helper induced.

[1] = tested on: HBL-100 breast cancer cells; assay: Inhibition of colony formation of HBL-100 breast cancer cells; assay type: cell-based, human
Description: The activity of cancer cell colony formation is determined by using HBL-100 breast cancer cells according to the method described in Example 4, which is expressed by the percentage of the activity of cancer cell colony formation in a control group in which none of the chemicals is added. A group in which thymidine is used alone, a group in which CDA-II is used alone, and a group in which thymidine and CDA-II are used together (1:1) were tested. […] The synergistic effect is remarkable.
The activity of cancer cell colony formation is determined by using HBL-100 breast cancer cells according to the method described in Example 4. Each culture flask contains 5 ml medium, which contains 3000 HBL-100 cells and different amounts of CDA-11, vitamin C or vitamin B17. After incubation at 37° C. for 5 days, the cells were stained with Giemsa, and numbers of colonies with more than 8 cells were counted under a microscope.
Another indication of the anticancer activity of CDA-II is the inhibition of colony formation of HBL-100 breast cancer cell. At the beginning, the breast cancer cells growing at the exponential phase were washed with HBS solution, then about 2 ml 0.05% trypsin-0.53 mM EDTA was added, and the solution was incubated at 37° C. for 10 minutes. Thereafter, the cell density was measured, then an aliquot was taken and diluted to 3×10^3 cells/ml. 0.5 ml of the diluted solution was added into 4.5 ml culture medium with or without CDA-II and incubated at 37° C. Five days later, the medium was discarded, and the cells were washed with isotonic saline, then methanol was added to fix cells for 15 minutes. The fixed cells were stained for 30 minutes with Giemsa staining solution diluted 20 fold. After the staining solution was discarded, the cells were washed with water and dried. The colony number above 8 cells was counted under a microscope to determine the anticancer activity of CDA-II (the result is shown in table 1).
The experiment was carried out according to FIG. 6. HBL-100 cells were cultured with different dosages of CDA-II, vitamin C and vitamin B17 alone, and with the combination of CDA-II and vitamin C, or the combination of CDA-II and vitamin B17.

[2] = retinoic acid combined with 4 μM helper inducer

CC1=C(/C=C/C(C)=C/C=C/C(C)=C/C(=O)O)C(C)(C)CCC1 [retinoic acid]
Extent of differentiation (NBT+) (HL-60 cancer cells; differentiation inducer (0.025-0.15 μM retinoic acid) used alone): about 85%

C=CC1=C(C)C(=O)N=C1C=c1[nH]c(=Cc2[nH]c(O)c(C)c2CCC(=O)O)c(CCC(=O)O)c1C [uroerythrin]
Concentration to reach 0.5 reductive index (HL-60 cells): 1.8 µM | Extent of differentiation (NBT+) (HL-60 cancer cells; [2]): 100%

O=C1O[C@H]([C@@H](O)CO)C(O)=C1O [vitamin C]
IC50 ([1]; Homo sapiens, HBL-100, 120 h, 5 days, FIG. 7, read-out: IC50, inhibition of the formation of colonies of HBL-100 human breast cancer cells): 530 mg/L | inhibition at 200 µg/mL ([1]; Homo sapiens, HBL-100, vitamin C 0.2 mg/ml alone, read-out: Colony formation of HBL-100 cells: inhibition percentage, administered alone): 12%

N#CC(O[C@@H]1O[C@H](CO[C@@H]2O[C@H](CO)[C@@H](O)[C@H](O)[C@H]2O)[C@@H](O)[C@H](O)[C@H]1O)c1ccccc1 (stereo partly shown) [vitamin B17]
IC50, inhibition of the formation of colonies of HBL-100 human breast cancer cells ([1]; 5 days, FIG. 7): 130 mg/L | Colony formation of HBL-100 cells: inhibition percentage, administered alone ([1]; vitamin B17 0.05 mg/ml alone): 20%

Cc1cc2nc3c(=O)[nH]c(=O)nc-3n(C[C@H](O)[C@H](O)[C@H](O)CO)c2cc1C [vitamin B2, riboflavin]
Concentration to reach 0.5 reductive index (HL-60 cells): 3.0 µM | Extent of differentiation (NBT+) (HL-60 cancer cells; [2]): 100%

O=C(O)Cc1ccccc1 [phenylacetic acid]
Concentration to reach 0.5 reductive index (effective dose of differentiation inducer reduced to 50%) (HL-60 cells): 4 mM

O=C(O)CNC(=O)c1ccccc1 [hippuric acid]
Concentration to reach 0.5 reductive index (effective dose of differentiation inducer reduced to 50%) (HL-60 cells): 8 mM

CC[n+]1c(-c2ccccc2)c2cc(N)ccc2c2ccc(N)cc21 [ethidium bromide]
Concentration to reach 0.5 reductive index (HL-60 cells): 0.95 µM

CCN(CC)CCNc1ccc(CO)c2sc3ccccc3c(=O)c12 [hycanthone]
Concentration to reach 0.5 reductive index (HL-60 cells): 2 µM
